Experimental data: patent US8211875B2, “Local treatment of neurofibromas” (Nexgenix Pharmaceuticals Inc, priority 2005, dated 2012)

Columns and labels:
[1] = Cell proliferation assay (ATPlite) in a panel of NF1 related cell lines; format: cell-based, human and mouse; details: 72 h; read-out: IC50 (concentration required for inhibition of cell proliferation by 50%)
Description: Several physiologically relevant cells or cell lines were employed to measure compound potency in cell proliferation assays. These cells include: (1) NF1-deficient human malignant peripheral nerve sheath tumor (MPNST) cells, (2) Nf1^−/− mouse embryonic Schwann cells, and (3) Nf1- and p53-deficient mouse cell. […] All the other cells are grown in DMEM with 10% fetal bovine serum (FBS).
Various concentrations of each compound/agent to be tested were added to the growing media and the cells were then cultured for 3 days. […] Viable cells were measured by detecting luminescence generated from reaction of ATPlite solution and the ATP in the cells.

[2] = tested on: Fresh human dermal neurofibroma; experiment: Ex vivo tumor explant assay, histological score; format: cell-based; details: compound added day 1, collected day 3, criterion “+” or more
Description: The efficacy of the compound/agent was tested in an ex vivo tumor explant model as follows. Fresh human dermal neurofibroma was cut into eight small pieces and cultured on standard cell culture plates with medium containing DMEM/F12, 10% FBS, heregulin and forskolin. The pieces were divided into treatment and control groups. Compound at different doses was added to the medium on day 1. No compound was added in the negative control group. All tumor pieces were collected on day 3 and processed for histology by formalin fixation and paraffin embedding. Tissue sections were cut and stained with hematoxylin-eosin for histological analysis. The histological analysis of the paired explant samples was conducted blindly. Three histological parameters were used to score the samples from “−” to “+++”: 1) overall tissue integrity; we evaluate tissue integrity by comparing the cellularity of treated samples to the negative control samples. The low cellularity area was defined as >30% less nucleus than the similar area on the control sample. The photograph of each sample at 40× under a bright field microscopy was take using MagnaFire digital camera (Optronics, USA) and stored in computer. The low cellularity areas in the pictures were measured using Photoshop and calculated as Length×Width, and then expressed as a percentage over the total area of the sample. Overall tissue integrity was scored using 0 to 2+ score. In short, good tissue integrity is scored 0 (<5%), 1+ indicates medium tissue integrity (5-25%), 2+ low tissue integrity (>25%). Only 2+ cases were regarded as positive “+” for the final total score; 2) cell death—slides were evaluated by bright field microscopy. At least 100 cells per view were counted. Cell death was scored semi-quantitatively using the 0 to 3+ score. The absence of condensed or fragmented nucleus is scored 0, 1+ indicates the lowest level of detectable cell death (<10%), 2+ moderate cell death ([…]), and 3+ high cell death (>30%). All 2+ and 3+ cases were regarded as positive “+” for the final total score; and 3) effect on vasculatures.—slides were evaluated by bright field microscopy. The effect on vasculature in treated samples was determined by comparing with the vasculatures in control negative samples. At least 20 vasculatures per sample were counted. Effect on vasculatures was scored semi-quantitatively using the […]. In short, absence or the lowest level of damaged vasculature is scored 0 (<5%), 1+ indicates of some damaged vasculature (5-25%), 2+ high (>25%). All 1+ and 2+ cases were regarded as positive “+” for the final total score. Final histological score was the sum of the scores of the above three parameters, expressed as “−” to “+++”. Any compound with a histological score of “+” or more will be potential good candidates for local treatment of neurofibromas.

cutaneous neurofibromas = experiment: Proof-of-concept intralesional administration study in NF1 subjects; format: in vivo, human; details: intralesional injection once weekly for 4 weeks, all controls showed no change
Excerpt: The study was a proof-of-concept, prospective, safety and efficacy study of the effect of intralesionally administered drugs given once a week to 3 target cutaneous neurofibromas for 4 consecutive weeks. Six subjects were enrolled. […] All subjects were from 18 to 65 years of age, inclusive. All subjects otherwise were in good health, or had stable concomitant medical conditions appropriately managed by a primary care physician. […] After screening and enrollment, all subjects received a defined volume (based on the size of the lesion) of intralesional drug once weekly into 3 target cutaneous neurofibromas that are 0.5 to 1.5 cm in diameter, inclusive, in its largest dimension. Each target cutaneous neurofibroma was different in size, with one 0.5 to 0.8 cm in diameter, a second between 0.81 to 1.2 cm in diameter, and a third 1.21 to 1.5 cm in diameter. Concomitantly, three control cutaneous neurofibromas found on the torso and/or appendages of the same range in sizes received sterile normal saline. All lesions prior to injection were locally anesthetized with lidocaine 1% and epinephrine 1:100,000. […] Assessment included the exact measured dimensions (in two axes) of the […] assessed lesions. […]

Row | Compound | IC50 [1] | Final histological score (tissue integrity, cell death, effect on vasculatures) [2] | tumors injected showing partial or complete elimination of the dermal neurofibroma (cutaneous neurofibromas)
1 | O=C(O[C@@H]1Cc2c(O)cc(O)cc2O[C@@H]1c1cc(O)c(O)c(O)c1)c1cc(O)c(O)c(O)c1 [EGCG, (−)-Epigallocatechin Gallate] | ≤ 10 µM | – | –
2 | CC(/C=C/C(=O)NO)=C\[C@@H](C)C(=O)c1ccc(N(C)C)cc1 [Tricostatin A] | ≤ 10 µM | + | –
3 | O=c1cc(N2CCOCC2)oc2c(-c3ccccc3)cccc12 [LY294002, 2-(4-Morpholinyl)-8-phenyl-4H-1-benzopyran-4-one] | ≤ 10 µM | – | –
4 | CC[C@@]1(O)C(=O)OCc2c1cc1n(c2=O)Cc2cc3ccccc3nc2-1 [Camptothecin] | ≤ 10 µM | – | –
5 | O=C([O-])Cc1ccccc1Nc1c(Cl)cccc1Cl.[Na+] [Diclofenac] | – | + | 48%
6 | CCCC(CCC)C(=O)O [Valproic acid] | – | + | –
7 | Nc1ncnc2c1ccn2[C@@H]1O[C@H](CO)[C@@H](O)[C@H]1O [Tubercidin] | ≤ 10 µM | + | –
8 | COc1cc(/C=C/C(=O)CC(=O)/C=C/c2ccc(O)c(OC)c2)ccc1O [curcumin, Curcumin] | ≤ 10 µM | – | –
9 | C=CCNC1=C2C[C@@H](C)C[C@H](OC)[C@H](O)[C@@H](C)/C=C(\C)[C@H](OC(N)=O)[C@@H](OC)/C=C\C=C(/C)C(=O)NC(=CC1=O)C2=O [17-AAG, 17-(Allylamino)-17-demethoxygeldanamycin] | ≤ 10 µM | + | –
10 | C[C@H]1c2cccc(O)c2C(=O)C2=C(O)[C@]3(O)C(=O)C(C(N)=O)=C(O)[C@@H](N(C)C)[C@@H]3[C@@H](O)[C@@H]21.Cl [Doxycycline] | ≤ 10 µM | – | 89%
11 | COC(=O)Nc1nc2cc(C(=O)c3ccccc3)ccc2[nH]1 [Mebendazole] | ≤ 10 µM | + | –
12 | CC1=C(/C=C/C(C)=C/C=C/C(C)=C/C(=O)O)C(C)(C)CCC1 [retinoic acid, 3,7-dimethyl-9-(2,6,6-trimethyl-1-cyclohexenyl)-nona-2,4,6,8-tetraenoic acid] | ≤ 10 µM | – | –
13 | S=P(N1CC1)(N1CC1)N1CC1 [Thiotepa] | ≤ 10 µM | + | –
14 | C[C@@H]1C[C@H]2O[C@@H]2/C=C\C=C\C(=O)Cc2c(Cl)c(O)cc(O)c2C(=O)O1 [radicicol, Radicicol] | ≤ 10 µM | + | –
15 | CCN(CC)CCNC(=O)c1c(C)[nH]c(/C=C2\C(=O)Nc3ccc(Cl)cc32)c1C [SU11652, 5-[(Z)-(5-Chloro-2-oxo-1,2-dihydro-3H-indol-3-ylidene)methyl]-N-[2-(diethylamino)ethyl]-2,4-dimethyl-1H-pyrrole-3-carboxamide] | ≤ 10 µM | – | –
16 | CCCCCCCCCCCCCCCCOP(=O)([O-])OCC[N+](C)(C)C [miltefosine, Miltefosine] | ≤ 10 µM | – | –
17 | N#CC(=C(/N)Sc1ccccc1N)/C(C#N)=C(\N)Sc1ccccc1N [U0126, 1,4-Diamino-2,3-dicyano-1,4-bis(2-aminophenylthio)-butadiene] | ≤ 10 µM | – | –
18 | NC(=O)c1cn([C@@H]2O[C@H](CO)C(O)C2O)c2ncnc(N)c12 (stereo partly shown) [Sangivamycin] | ≤ 10 µM | + | –
19 | Nc1nc(Cl)nc2c1ncn2[C@H]1C[C@H](O)[C@@H](CO)O1 [Cladribine] | ≤ 10 µM | – | –
20 | COc1cc([C@@H]2c3cc4c(cc3[C@H](O)[C@H]3COC(=O)[C@H]23)OCO4)cc(OC)c1OC [Podophyllotoxin] | ≤ 10 µM | + | –
21 | Bleomycin | – | + | –
22 | CO[C@H]1C[C@@H]2CC[C@@H](C)[C@@](O)(O2)C(=O)C(=O)N2CCCC[C@H]2C(=O)O[C@H]([C@H](C)C[C@@H]2CC[C@@H](O)[C@H](OC)C2)CC(=O)[C@H](C)/C=C(\C)[C@@H](O)[C@@H](OC)C(=O)[C@H](C)C[C@H](C)/C=C/C=C/C=C/1C [rapamycin, Rapamycin] | ≤ 10 µM | – | –
23 | COc1cc2ncnc(N3CCN(C(=S)NCc4ccc5c(c4)OCO5)CC3)c2cc1OC [KN2941, 4-(6.7-dimethoxy-4-quinazolinyl)-N-(3,4-methylenedioxybenzyl)-1-piperazinethiocarboxamide] | ≤ 10 µM | – | –
24 | O=c1[nH]cc(F)c(=O)[nH]1 [5-fluorouracil] | ≤ 10 µM | + | –
25 | CC1=C(/C=C/C(C)=C/C=C/C(C)=C/C(=O)Nc2ccc(O)cc2)C(C)(C)CCC1 [Fenretinide] | ≤ 10 µM | + | –
